Results as given in PubChem BioAssay AID1508599 (Sanford-Burnham Center for Chemical Genomics, 2020).
Several values for one entry are separate records, joined by “and”; a condition that tells them apart may be missing. Equal entries are not always repeated. Activity calls are given as the source filed them.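 How the source made its calls: active means IC50 under 30000 nM, about half a log past the top tested dose; inactive means the rest.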

Biological target: Baculoviral IAP repeat-containing protein 2 (Homo sapiens) (UniProt Q13490)
Assay: cIAP1 BIR3–SMAC binding inhibitors, SAR follow-up, biochemical (AID 1508599)
Conditions: cIAP1 BIR3 / rhodamine-SMAC peptide fluorescence polarization

Baculoviral IAP repeat-containing protein 2 (Homo sapiens), sequence (Q13490 whole entry, looked up): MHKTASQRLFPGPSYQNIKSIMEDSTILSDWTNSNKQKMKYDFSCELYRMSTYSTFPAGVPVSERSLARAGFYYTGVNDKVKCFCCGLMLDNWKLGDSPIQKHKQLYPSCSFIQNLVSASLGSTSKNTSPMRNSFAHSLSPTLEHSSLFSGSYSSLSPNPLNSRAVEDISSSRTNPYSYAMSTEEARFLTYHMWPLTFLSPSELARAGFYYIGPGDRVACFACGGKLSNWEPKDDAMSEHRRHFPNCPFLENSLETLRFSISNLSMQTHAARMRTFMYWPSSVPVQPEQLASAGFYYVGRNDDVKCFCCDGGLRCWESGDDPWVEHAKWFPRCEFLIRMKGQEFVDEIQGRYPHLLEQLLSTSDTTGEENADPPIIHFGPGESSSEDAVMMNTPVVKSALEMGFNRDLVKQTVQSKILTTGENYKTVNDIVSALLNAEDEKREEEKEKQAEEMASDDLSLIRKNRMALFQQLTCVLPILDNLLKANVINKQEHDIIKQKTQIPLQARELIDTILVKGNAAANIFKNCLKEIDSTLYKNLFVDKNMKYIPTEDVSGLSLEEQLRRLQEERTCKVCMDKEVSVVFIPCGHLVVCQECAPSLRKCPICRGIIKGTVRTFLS

Row | IC50 | SMILES
1 | > 100000 nM (inactive) | CN[C@@H](C)C(=O)N[C@H]1CCO[C@H]2CC[C@H](C(=O)N[C@@H]3CCOc4ccccc43)N2C1=O
2 | 147 nM | CN[C@@H](C)C(=O)N[C@H]1CCO[C@H]2CC[C@H](C(=O)n3ccc4ccccc43)N2C1=O
3 | 1300 nM | CN[C@@H](C)C(=O)N[C@H]1CCO[C@H]2CC[C@@H](C(=O)N[C@@H]3CCOc4ccccc43)N2C1=O
4 | 140 nM | CN[C@@H](C)C(=O)N[C@H]1CCS[C@H]2CC[C@@H](C(=O)N[C@@H]3CCCc4ccccc43)N2C1=O
5 | 8440 nM | CN[C@@H](C)C(=O)N[C@H]1CCO[C@H]2c3ccccc3C(C(=O)N[C@@H]3CCCc4ccccc43)N2C1=O (some centres not stated)
6 | 72 nM | CN[C@@H](C)C(=O)N[C@H]1CCO[C@H]2CCC(C(=O)N[C@H]3CCCc4ccccc43)N2C1=O (some centres not stated)
7 | 93 nM | CN[C@@H](C)C(=O)N[C@H]1Cc2c([nH]c3ccccc23)[C@H]2CCC(C(=O)N[C@@H]3CCCc4ccccc43)N2C1=O (some centres not stated)
8 | 210 nM | CN[C@@H](C)C(=O)N[C@H]1CCO[C@H]2CC(C)(C)[C@@H](C(=O)N[C@@H]3CCCc4ccccc43)N2C1=O
9 | 6850 nM | CC(=O)N(C)[C@@H](C)C(=O)N[C@H]1CCCN(C(C)=O)[C@H]2CCC(C(=O)Nc3cccc4ccccc34)N2C1=O (some centres not stated)
10 | 78 nM | CN[C@@H](C)C(=O)N[C@@H]1C(=O)N2C(C(=O)Nc3cccc4ccccc34)CC[C@@H]2O[C@@H]1C (some centres not stated)
11 | 113 nM | CN[C@@H](C)C(=O)N[C@H]1CCN[C@H]2CCC(C(=O)N[C@@H]3CCCc4ccccc43)N2C1=O (some centres not stated)
12 | 363 nM and 2520 nM and 605 nM | CN[C@@H](C)C(=O)N[C@H]1CCSC2CCCC(C(=O)N[C@@H]3CCCc4ccccc43)N2C1=O (some centres not stated)
13 | inactive | CN[C@@H](C)C(=O)N[C@H]1Cc2cc(O)ccc2[C@H]2CC(C)(C)C(C(=O)N[C@@H]3CCCc4ccccc43)N2C1=O (some centres not stated)
14 | 14900 nM | CN[C@@H](C)C(=O)N[C@H]1Cc2cccc(O)c2[C@H]2CC(C)(C)C(C(=O)N[C@@H]3CCCc4ccccc43)N2C1=O (some centres not stated)
15 | 235 nM | CN[C@@H](C)C(=O)N[C@@H]1C(=O)N2C(C(=O)NC(c3ccccc3)c3ccccc3)CC[C@@H]2O[C@@H]1C (some centres not stated)
16 | 1000 nM | CN[C@@H](C)C(=O)N[C@H]1CCS[C@H]2CC[C@H](C(=O)N[C@@H]3CCCc4ccccc43)N2C1=O

Row | IC50 | SMILES
17 | 47 nM | CN[C@@H](C)C(=O)N[C@H]1CCO[C@H]2CC[C@@H](C(=O)Nc3cccc4ccccc34)N2C1=O
18 | 2000 nM and 1790 nM | CN[C@@H](C)C(=O)N[C@H]1CC(=O)N[C@H]2CC(C)(C)C(C(=O)N[C@@H]3CCCc4ccccc43)N2C1=O (some centres not stated)
19 | 21100 nM | CN[C@@H](C)C(=O)N[C@H]1CCCN[C@H]2CCC(C(=O)Nc3cccc4ccccc34)N2C1=O (some centres not stated)
20 | 11600 nM | CN[C@@H](C)C(=O)N[C@H]1CCS(=O)(=O)[C@H]2CC[C@@H](C(=O)N[C@@H]3CCCc4ccccc43)N2C1=O
21 | 1350 nM | CN[C@@H](C)C(=O)N[C@H]1CCO[C@H]2CC3(CCCC3)C(C(=O)N[C@@H]3CCCc4ccccc43)N2C1=O (some centres not stated)
22 | 740 nM | CN[C@@H](C)C(=O)N[C@H]1CCO[C@H]2CC[C@@H](C(=O)N[C@@H]3CCCc4ccccc43)N2C1=O
23 | 272 nM and 37 nM | CN[C@@H](C)C(=O)N[C@H]1CCCN(C(C)=O)C2CCC(C(=O)N[C@H]3CCCc4ccccc43)N2C1=O (some centres not stated)
24 | > 100000 nM (inactive) | CN[C@@H](C)C(=O)N[C@H]1CCS(=O)(=O)[C@H]2CC[C@H](C(=O)N[C@@H]3CCCc4ccccc43)N2C1=O
25 | 157 nM | CN[C@@H](C)C(=O)N[C@H]1CCS[C@H]2CCC(C(=O)N[C@H]3CCCc4ccccc43)N2C1=O (some centres not stated)
26 | 789 nM | CN[C@@H](C)C(=O)N[C@H]1CCCN[C@H]2CCC(C(=O)N[C@H]3CCCc4ccccc43)N2C1=O (some centres not stated)
27 | > 100000 nM (inactive) | CN[C@@H](C)C(=O)N[C@H]1Cc2cc(O)c(O)cc2[C@H]2CC(C)(C)C(C(=O)N[C@@H]3CCCc4ccccc43)N2C1=O (some centres not stated)
28 | 294 nM | CN[C@@H](C)C(=O)N[C@H]1CCO[C@H]2CCC(C(=O)NC(c3ccccc3)c3ccccc3)N2C1=O (some centres not stated)
29 | 505 nM | CN[C@@H](C)C(=O)N[C@H]1CCO[C@H]2CC(C)(C)C(C(=O)Nc3ccccc3SSc3ccccc3NC(=O)C3N4C(=O)[C@@H](NC(=O)[C@H](C)NC)CCO[C@H]4CC3(C)C)N2C1=O (some centres not stated)
30 | 263 nM | CN[C@@H](C)C(=O)N[C@H]1CCO[C@H]2CCC(C(=O)Nc3cccc4ccccc34)N2C1=O (some centres not stated)
31 | > 100000 nM (inactive) | CN[C@@H](C)C(=O)N[C@H]1CCS(=O)(=O)[C@H]2CC(C)(C)[C@@H](C(=O)N[C@@H]3CCCc4ccccc43)N2C1=O
32 | 1210 nM | CN[C@@H](C)C(=O)N[C@H]1CCO[C@H]2CC[C@@H](C(=O)n3ccc4ccccc43)N2C1=O
